Test [1] concerns the target T1, α7/5-HT3 Chimeric Ligand Gated Ion Channel (Homo sapiens, UniProt P36544, M226I/T225I).
T1 construct: expressed in transfected cells
Format: binding, human α7 / mouse 5-HT3. The note with it: for IC50: read-out: Fitc-α-Bungoarotoxin Binding (30 nM) IC50.

Test [2] has as its target T2, α7 nAChR (Homo sapiens, UniProt P36544). As to conditions: endogenous α7 nACh receptor; cited from earlier work.
The target of test [3] is T3, α7/5-HT3 channel (Homo sapiens, UniProt P36544, M226I/T225I).
T3 construct: expressed in transfected cells
Kind of test: Calcium flux assay on FLIPR, agonist activity, α7/5-HT3-SHEP cells. Format: cell-based, human α7 / mouse 5-HT3. The note with it: for EC50: calcium flux. The procedure:
The α7/5-HT3-SHEP or alternatively the human α7 nACHR double mutant SHEP (described below) cells were grown in minimal essential medium (MEM) containing nonessential amino acids supplemented with 10% fetal bovine serum, L-glutamine, 100 units/ml penicillin/streptomycin, 250 ng/ml fungizone, 400 μg/ml Hygromycin-B, and 800 μg/ml Geneticin. The cells were grown in a 37° C. incubator with 6% CO2. The α7/5-HT3-SHEP cells were trypsinized and plated in 96 well plates with dark side walls and clear bottoms (Corning # 3614) at density of […] cells per well two days before analysis. The cells were loaded in a 1:1 mixture of 2 mM Calcium Green-1, AM (Molecular Probes) prepared in anhydrous dimethylsulfoxide and 20% pluonic F-127 (Molecular Probes). This reagent was added directly to the growth medium of each well to achieve a final concentration of 2 μM of Calcium Green-1, AM. The cells were incubated in the dye for one hour at 37° C. and then washed with 4 cycles of Bio-Tek plate washer. Each cycle was programmed to wash each well with four times with either EBSS or MMEBSS. After the third cycle, the cells were allowed to incubate at 37° C. for at least ten minutes. After the fourth cycle final volume in each well was 100 μl. The cells were analyzed on FLIPR (Molecular Devices) for the change in fluorescence after the addition of a 100 μl of a 2× drug stock. FLIPR was set up to excite the dye with at 488 nanometers using 500 mW of power. A 0.5 second exposure was used to illuminate each well. Fluorescence emission was recorded above 525 nm. Fluorescence was detected using a F-stop set of either 2.0 or 1.2.
We compared the physiological Earles Balanced Salt Solution (EBBS) buffer and the special cell culture media (MMEBSS) in the Ca^++functional assay on FLIPR.
The special cell culture media, designated MMEBSS is comprised of 4 mM CaCl2, 0.8 mM MgSO4, 20 mM NaCl, 5.3 mM KCL, 5.6 mM D-Glucose, 120 mM N-Methyl-D-Glucosamine, 9 mM Tris base and 20 mM HEPES. A detailed description of the preparation of MMEBSS is provided below.

Test [4] addresses T2, α7 nAChR. As to conditions: human receptor; cited from earlier work.
For test [5], the target named is chicken α7 nAChR (Gallus gallus, UniProt P22770). The note with it: chicken receptor; cited from earlier work.
The target in test [6] is double mutant human α7 ligand gated ion channel (Homo sapiens, UniProt P36544, C241S/T230P). As to conditions: 100 M nicotine as printed. As for the experimental part: The cells were grown in a 37° C. incubator with 6% CO2. […] Each cycle was programmed to wash each well with four times with either EBSS or MMEBSS. […] A 0.5 second exposure was used to illuminate each well. Fluorescence was detected using a F-stop set of either 2.0 or 1.2.

Where two headings read alike, the source gives them in different places.

T2 sequence (P36544 23-502): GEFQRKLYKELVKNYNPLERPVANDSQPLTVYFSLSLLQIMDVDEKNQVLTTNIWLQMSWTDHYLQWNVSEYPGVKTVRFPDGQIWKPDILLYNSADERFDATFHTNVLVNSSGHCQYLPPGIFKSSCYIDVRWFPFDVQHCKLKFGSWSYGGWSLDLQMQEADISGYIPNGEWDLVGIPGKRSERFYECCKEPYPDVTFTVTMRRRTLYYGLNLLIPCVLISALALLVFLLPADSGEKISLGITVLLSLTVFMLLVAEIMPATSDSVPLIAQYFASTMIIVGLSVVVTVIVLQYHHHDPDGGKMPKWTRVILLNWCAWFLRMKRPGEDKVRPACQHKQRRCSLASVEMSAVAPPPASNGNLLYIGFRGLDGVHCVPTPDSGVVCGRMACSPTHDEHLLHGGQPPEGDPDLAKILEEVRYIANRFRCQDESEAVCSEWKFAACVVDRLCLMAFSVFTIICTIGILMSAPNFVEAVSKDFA
T3 sequence (P36544 with tags, fused parts or gaps T225I/M226I): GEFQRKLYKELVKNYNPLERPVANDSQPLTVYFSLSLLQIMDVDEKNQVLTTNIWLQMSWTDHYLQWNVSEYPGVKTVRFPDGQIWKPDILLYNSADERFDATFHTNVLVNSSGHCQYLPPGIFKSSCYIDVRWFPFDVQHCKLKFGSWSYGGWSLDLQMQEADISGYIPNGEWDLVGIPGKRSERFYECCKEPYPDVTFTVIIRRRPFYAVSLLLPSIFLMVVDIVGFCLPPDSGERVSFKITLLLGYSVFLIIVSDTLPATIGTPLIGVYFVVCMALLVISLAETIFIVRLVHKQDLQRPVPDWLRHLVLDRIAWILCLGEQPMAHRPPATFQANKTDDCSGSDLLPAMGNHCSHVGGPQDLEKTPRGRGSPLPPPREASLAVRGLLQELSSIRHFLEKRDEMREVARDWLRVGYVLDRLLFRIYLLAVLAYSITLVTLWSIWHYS
T1 sequence (P36544 with tags, fused parts or gaps T225I/M226I): as above
chicken α7 nAChR, sequence (P22770 23-502 limits assumed): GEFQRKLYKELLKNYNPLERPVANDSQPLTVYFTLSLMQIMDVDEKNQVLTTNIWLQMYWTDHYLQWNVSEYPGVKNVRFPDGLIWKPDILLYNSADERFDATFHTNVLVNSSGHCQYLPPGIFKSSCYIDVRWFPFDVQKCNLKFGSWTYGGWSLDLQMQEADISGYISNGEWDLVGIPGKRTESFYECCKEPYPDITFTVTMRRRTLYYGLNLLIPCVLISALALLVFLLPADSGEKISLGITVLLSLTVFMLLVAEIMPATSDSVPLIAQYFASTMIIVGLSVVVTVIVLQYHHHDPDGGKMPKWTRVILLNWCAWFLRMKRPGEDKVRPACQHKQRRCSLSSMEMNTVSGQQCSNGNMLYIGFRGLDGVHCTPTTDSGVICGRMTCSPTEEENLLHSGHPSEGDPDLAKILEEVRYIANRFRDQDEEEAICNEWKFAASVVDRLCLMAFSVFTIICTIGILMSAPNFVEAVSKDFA
double mutant human α7 ligand gated ion channel, sequence (P36544 23-502 T230P/C241S): as the sequence (P36544 23-502) above, with T208P, C219S counted along it

As usually defined, the IC50 is the concentration that gives 50% inhibition. In general, EC50 refers to the concentration that produces a half-maximal response. In the case of `Cc1cc([C@@H]2CCCN2C)on1` [ABT-418], the IC50 in test [1] came out at 38 µM. Also, the EC50 was 70 µM in test [2] and 27 µM in test [3] (MMEBSS).
`c1cncc(C2=NCCCC2)c1` [Anabaseine]: the EC50 is 6 µM in test [2] and 6.6 µM in test [3] (MMEBSS).
For orientation: Ki means a measure of affinity in units of concentration, obtained from inhibition or displacement. On to `Clc1ccc([C@@H]2C[C@H]3CC[C@@H]2N3)cn1` (racemic) [(+/−) Epibatidine], for which the IC50 in test [1] worked out at 0.09 µM. In test [1] (read-out: Ki, competition for Fl-btx binding), the Ki was 0.09 µM. Also, the EC50 was 2 µM in test [2] and 0.12 µM in test [3] (MMEBSS).
Consider `C[N+]1(C)CCN(c2ccccc2)CC1` [1,1-dimethyl-4-phenylpiperazinium], for which the Agonist character result in test [4] was “full agonist”; in test [5] it was “partial agonist”.
With `CCN1C[C@]2(COC(=O)c3ccccc3N3C(=O)C[C@H](C)C3=O)CC[C@H](OC)[C@@]34[C@@H]5C[C@H]6[C@H](OC)[C@@H]5[C@](O)(C[C@@H]6OC)[C@](O)([C@@H](OC)[C@H]23)[C@@H]14` [Methyllcaconitine (MLA), Methyllcaconitine], the IC50 in test [1] amounted to 0.026 µM.
`COc1ccc(/C=C2\CCCN=C2c2cccnc2)c(OC)c1` [GTS-21]: the IC50 in test [1] (30 nM Fl-btx, whole cell) amounted to 16 µM. Also, the EC50 in test [2] is 30 µM.
For the compound `CNC1(C)C2CCC(C2)C1(C)C` (stereo not shown) [Mecamylamine], the IC50 in test [1] was greater than 300 µM.
On to `CN1CCCC1c1cccnc1` (single isomer, unassigned; (-)) [(−) Nicotine], for which the “Competition of Fl-btx binding” value in test [1] was “competes at all concentrations of Fl-btx”. Besides, the “Calcium response to agonist in physiological buffer” value in test [3] (100 μM, EBSS, FIG. 6) is given as “little calcium was detected”. For the same compound, in test [3] (100 μM, MMEBSS, FIG. 6), the “Calcium response to agonist in special cell culture media” value is “evoked a large increase in intracellular calcium”. For the same compound, in test [6], the Calcium influx result is reported as “induced a maximal calcium influx”.

(Values after patent US7247706B2, “Double mutant alpha-7 nicotinic acetylcholine receptors” (Pharmacia & Upjohn Company, priority 1999, dated 2007).)
